According to patent US10376520B2, “Methods for the treatment of cardiovascular disorders” (Galapagos NV, priority 2015, dated 2019):

Legend:
Assay type in all cases: in vivo, human
RA patients [1] = assay: ApoB level (Selectra autoanalyzer), Study 4; details: for ApoB level, 4 weeks CFB: 4 weeks change from baseline
Protocol: (§1) Randomized double-blind, placebo-controlled add on study in subjects with active RA who have an inadequate response to MTX monotherapy, in combination with methotrexate, administered for 4 weeks in the treatment of subjects with active rheumatoid arthritis who have an inadequate response to methotrexate alone.
(§2) Compound 1 (dosed as a [Compound 1:HCl:3H2O]) capsules administered orally in 30 mg, 75 mg, 150 mg, or 300 mg doses per day for 4 weeks.
ApoAI, and ApoB were measured on the Selectra autoanalyzer (Sopachem BV, 44-RI Straat 33, 4051 AP Ochten, The Netherlands). All assays were commercially available from DiaSys Diagnostic Systems GmbH, Alte Strasse 9, 65558 Holzheim, Germany.

RA patients [2] = assay: Plasma Lecithin-Cholesterol Acyltransferase (LCAT) activity, Study 4; details: for LCAT level, 4 weeks CFB: 4 weeks change from baseline
Protocol: as §1, §2
LCAT activity was determined using a commercial available assay from Roar Biomedical. In short; incubation media contained 0.5 μL substrate reagent, 4 μL plasma in a final volume of 100 μL assay buffer. Incubations were performed for 1 h at 37° C. in a microtiter plate. Hereafter 200 μL READ reagent was added to the wells and after mixing, 200 μL was transferred to a black fluorescence compatible microplate. The plate was read at 340 nm excitation, 390 nm and 450 nm emission. LCAT activity was expressed as a ratio of the emission at 390 nm and 450 nm. These two wavelengths represent the LCAT substrate hydrolysed and not hydrolysed. An increase in the ratio indicates increased LCAT activity. Catalogue number RB-LCAT, Lot number used 13581392.

RA patients [3] = assay: Plasma CETP concentration (ELISA), Study 4; details: for CETP level, 4 weeks CFB: 4 weeks change from baseline
Protocol: as §1, §2
Plasma CETP concentration was determined using a commercial available ELISA kit from Alpco (26-G Keewaydin Drive, Salem, N.H. 03079 USA) according to manufacturer's instruction. Catalogue number 47-CETH-E01, lot number used: 812RCL.

## O=C(Nc1nc2cccc(-c3ccc(CN4CCS(=O)(=O)CC4)cc3)n2n1)C1CC1 [Compound 1, cyclopropanecarboxylic acid {5-[4-(1,1-dioxo-thiomorpholin-4-ylmethyl)-phenyl]-[1,2,4]triazolo[1,5-a]pyridin-2yl}-amide]
RA patients [1]; 30 mg q.d.
  ApoB level, 4 weeks CFB: 19.5%
  ApoB level, Baseline: 98.8 mg/dL
  ApoB level, week 4: 111 mg/dL
RA patients [1]; 75 mg q.d.
  ApoB level, 4 weeks CFB: −1.1%
  ApoB level, Baseline: 98.5 mg/dL
  ApoB level, week 4: 94.7 mg/dL
RA patients [1]; 150 mg q.d.
  ApoB level, 4 weeks CFB: −1.8%
  ApoB level, Baseline: 93.8 mg/dL
  ApoB level, week 4: 90.7 mg/dL
RA patients [1]; 300 mg q.d.
  ApoB level, 4 weeks CFB: 6.8%
  ApoB level, Baseline: 89.4 mg/dL
  ApoB level, week 4: 95.6 mg/dL
RA patients [2]; 30 mg q.d.
  LCAT level, 4 weeks CFB: 0.4%
RA patients [2]; 30 mg q.d., baseline
  LCAT activity (emission ratio): 1.9
RA patients [2]; 30 mg q.d., week 4
  LCAT activity (emission ratio): 2
RA patients [2]; 75 mg q.d.
  LCAT level, 4 weeks CFB: 4.2%
RA patients [2]; 75 mg q.d., baseline
  LCAT activity (emission ratio): 2
RA patients [2]; 75 mg q.d., week 4
  LCAT activity (emission ratio): 2.1
RA patients [2]; 150 mg q.d.
  LCAT level, 4 weeks CFB: 2.9%
RA patients [2]; 150 mg q.d., baseline
  LCAT activity (emission ratio): 1.9
RA patients [2]; 150 mg q.d., week 4
  LCAT activity (emission ratio): 1.9
RA patients [2]; 300 mg q.d.
  LCAT level, 4 weeks CFB: 4.4%
RA patients [2]; 300 mg q.d., baseline
  LCAT activity (emission ratio): 2
RA patients [2]; 300 mg q.d., week 4
  LCAT activity (emission ratio): 2.1
RA patients [3]; 30 mg q.d.
  CETP level, 4 weeks CFB: 2.4%
  CETP level, Baseline: 3.2 µg/mL
  CETP level, week 4: 3.2 µg/mL
RA patients [3]; 75 mg q.d.
  CETP level, 4 weeks CFB: −2.8%
  CETP level, Baseline: 2.8 µg/mL
  CETP level, week 4: 2.7 µg/mL
RA patients [3]; 150 mg q.d.
  CETP level, 4 weeks CFB: −11.4%
  CETP level, Baseline: 2.8 µg/mL
  CETP level, week 4: 2.3 µg/mL
RA patients [3]; 300 mg q.d.
  CETP level, 4 weeks CFB: −10.2%
  CETP level, Baseline: 2.5 µg/mL
  CETP level, week 4: 2.2 µg/mL
